Reference: ChEMBL document CHEMBL3507680, “University of Dundee, Gates Library screen for HepG2 cell viability”

Test: Human HepG2 cell viability assay in 384 well format
Type: toxicity, cell-based
Parameters: dose 125 nL, time 70.5 hour; concentration not given beside the values
Details: HepG2 cells, read-out: Inhibition

Row | SMILES | cytotoxicity at 70.5 h [%]
1 | CCc1cc(O)n2nc(C3CCCN3C(=O)c3ccccn3)cc2n1 (stereo not drawn) | 17
2 | CC(C)c1n[nH]c(C2CN(C(=O)c3ncoc3C(C)C)CCO2)n1 (stereo not drawn) | -2.71
3 | Cc1nc(C)n(CC2CCCN2Cc2ccc(F)cc2C#N)n1 (stereo not drawn) | 5.18
4 | CCN1C(=O)CCCC12CCCN(C(=O)c1sccc1C)C2 (stereo not drawn) | -9.33
5 | O=C1NC2(CCN(Cc3cccnc3)CC2)CC1c1ccncc1 (stereo not drawn) | -10.6
6 | O=C1CO[C@H]2CCN(C(=O)c3ccc4c(c3)CCCC4)CC[C@@H]2N1 | -8.53
7 | CCS(=O)(=O)c1ncc(CN(C)Cc2ccccc2OC)n1CCOC | -5.74
8 | CCCNC(=O)C(C)Oc1ccc(F)cc1 (stereo not drawn) | -12.9
9 | Cc1ccc2c(c1)C(=O)NCC1(CCN(C(=O)c3ccccn3)CC1)O2 | -7.17
10 | CC(C)N(C)Cc1n[nH]c2c1CCN(C(=O)c1cc[nH]n1)C2 | 21.5
11 | c1ccc2c(c1)OCCCC2NCc1nnc2n1CCCCC2 (stereo not drawn) | -2.04
12 | CCn1nc(C)cc1C(=O)NCc1cccnc1N(C)C | 2.09
13 | CC(=O)N1C[C@@H]2CN(Cc3cccnc3)CCO[C@@H]2C1 | -11.3
14 | COc1ccc(-n2cnc(Cl)c2CO)cc1 | -2.44
15 | Cc1cccc(CN2Cc3nccn3CC(CN3CCOCC3)C2)c1 (stereo not drawn) | -9.03
16 | Cc1ccc(C(=O)N2CCC3(CCC(=O)N(CCCO)C3)CC2)c(O)c1 | -8.79
17 | CCN1CCCC12CCN(Cc1cccnc1OC)CC2 | -4.58
18 | Cc1ccc(Oc2ncccc2CNC2CCOCC2)cn1 | -7.51
19 | CCc1cc(CN(C)C(=O)c2cnc3c(c2)nc(N)n3CC)on1 | -2.5
20 | CC(C)(C)OC(=O)N1CCN(c2ccc(F)cc2)CC1C(=O)O (stereo not drawn) | -1.03
21 | C[C@@H]1CN(c2ccc(Cl)cn2)C[C@@]1(O)C1CC1 | -3.66
22 | CCCN(Cc1nccn1C)C(=O)C(CC)Nc1cccc(OC)c1 (stereo not drawn) | -3.17
23 | O=C(NCc1ccccc1CN1CCCC1=O)Nc1nccs1 | -9.69

Row | SMILES | cytotoxicity at 70.5 h [%]
24 | COCCN1C[C@H]2CN(C(=O)NCc3ccccc3)CCN2C1=O | -8.58
25 | O=C(c1ccc2[nH]nnc2c1)N1CC[C@H](O)[C@]2(CCCO2)C1 | -4.29
26 | CC(NS(C)(=O)=O)C(=O)Nc1ccc2oc(C3CC3)nc2c1 (stereo not drawn) | -3.24
27 | Cc1cc(CNC(=O)NCc2ccccc2N2CCOCC2)no1 | 1.76
28 | CC(Nc1ccc(CN2CCCC2=O)cc1)C(=O)N(C)CCC#N (stereo not drawn) | 0.0537
29 | COCCN1CCN(CC(=O)N(C)Cc2ccc(F)cc2)CC1C (stereo not drawn) | 23.3
30 | CC(C)CNC(=O)C1=NOC2(CCN(Cc3ccoc3)C2)C1 (stereo not drawn) | -0.398
31 | Cc1nn(C)c2c(NCCCn3cccn3)nc(C(C)C)nc12 | 16.2
32 | Cc1cc(CN2CCCC2c2c(C)nn(C)c2Cl)on1 (stereo not drawn) | 0.0053
33 | COc1ccc(CN2CCC(C(N)=O)CC2)cc1SC(F)(F)F | 5.97
34 | c1nc2c(c(N3CCOC(Cn4cncn4)C3)n1)CCC2 (stereo not drawn) | -7.61
35 | CSCCC(C)NC(=O)N(C)Cc1cc(Cl)cn1C (stereo not drawn) | -10.9
36 | COCCCN1CCc2cncnc2C1 | -18.2
37 | COCCN1CCCC1(C)c1nc(C)cc(N)n1 (stereo not drawn) | 0.23
38 | N#Cc1ccc(OCC(O)CN2CCC(c3ccn[nH]3)CC2)cc1 (stereo not drawn) | -14.4
39 | Cc1nc2c(c(NCc3cc4ccccc4s3)n1)CCNCC2 | -5.12
40 | CN(C(=O)Nc1cccc(C#N)c1)C1CCN(c2ccccn2)CC1 | -8.89
41 | CNC(=O)[C@H]1C[C@H]2OCC[C@H]2N(CC2CCOCC2)C1 | -8.61
42 | CC(C)N1CCc2c(CN(C)Cc3ccco3)cncc2C1 | 5.22
43 | Cn1cnc(-c2nc(C(=O)NC3CC3)c3ccccn23)c1 | -1.89
44 | Cc1cc(C(=O)N2CCOC(c3nc(C(C)C)n[nH]3)C2)c(C)s1 (stereo not drawn) | -4.17
45 | Cc1ocnc1C(=O)N1CCCC1c1ccc(C(=O)N2CCSCC2)s1 (stereo not drawn) | -7.81
46 | CC1(c2ccccc2)CCC(=O)N(CCN2CCCOC2=O)C1 (stereo not drawn) | -6.79

Row | SMILES | cytotoxicity at 70.5 h [%]
47 | CCOc1ccccc1NC(=O)NCCc1ccoc1 | 12.2
48 | CCOc1ccc(NC(=O)c2cccc(OC)c2OC)cc1 | -1.48
49 | COCCC1COC2(CCN(C(=O)c3ccsc3)CC2)C1 (stereo not drawn) | -12.7
50 | CCC[C@H]1CN(CCS(C)(=O)=O)C[C@@H]1NC(=O)c1ccccc1F | -2.49
51 | Cc1nc2ccccn2c1CC(=O)N[C@@H]1CCC[C@@H](N2CCCC2)[C@@H]1O | -1.64
52 | CCS(=O)(=O)N1CCCCC1c1nc(CC(C)C)no1 (stereo not drawn) | -8.14
53 | Cc1cnc(C)c(-c2cccc(-c3ccn(CCN4CCCC4)n3)c2)n1 | 11.2
54 | O=C(NCCCOc1cccnc1)c1cn(CCc2ccccc2)nn1 | -7.58
55 | Cc1cc(C)c(-n2cccn2)c(CN2CCOCC(CN(C)C)C2)c1 (stereo not drawn) | -3.75
56 | Cc1ncc(CNCC2CCCN2c2cccnn2)s1 (stereo not drawn) | -19.7
57 | CCCc1nc(Cn2c(=O)n(C)c3ccccc32)no1 | -6.48
58 | CC(=O)N1CC2(CCN(C(=O)CO)CC2)c2cc(C)ccc21 | -4.93
59 | Cc1cccc(C)c1NC(=O)CC(CN1CCN(C)CC1)C(=O)O (stereo not drawn) | -15.8
60 | O=C(C1COCCO1)N1CCN(Cc2ccc3c(c2)CCO3)CC1 (stereo not drawn) | 1.06
61 | CCCn1cnc(NC(=O)NCC2CCS(=O)(=O)C2)n1 (stereo not drawn) | 12.9
62 | Cn1cc(CN2CC[C@H]3OCC[C@@H](C(=O)N4CCCCO4)[C@@H]3C2)cn1 | -15.8
63 | CN(C)C(=O)CC1CC2(CCN(c3ncccn3)CC2)c2ccccc21 (stereo not drawn) | -0.293
64 | COc1ccc(CCN(C)C(=O)CN2C(=O)OC[C@@H]2C(C)C)cc1OC | -4.47
65 | Oc1c(F)cc(CNc2cccc(-c3nnc[nH]3)c2)cc1F | -9.32
66 | CCOc1ccc(S(=O)(=O)NC(=O)c2c(C)noc2C(C)C)cc1 | 1.8
67 | CCOC[C@]12COC[C@H]1CN(Cc1ccc(F)c(F)c1)C2 | -4.64
68 | CC(NC(=O)NCCN1CCCCCC1=O)c1nncn1C (stereo not drawn) | 7.16
69 | CC(C)NC(=O)[C@H]1C[C@@H]2[C@@H](C1)OCCN2Cc1ccncc1 | -7.54

Row | SMILES | cytotoxicity at 70.5 h [%]
70 | O=S1(=O)NC2(CCCN(CCc3ccccc3)C2)COc2ccccc21 (stereo not drawn) | 0.68
71 | CCN1C(=O)CC[C@@H]2[C@H]1CCN2C(=O)Cc1cccc(OC)c1 | 0.943
72 | O=C(NCCC1CCCCO1)c1cc(COc2ccccc2F)[nH]n1 (stereo not drawn) | -4.49
73 | Cc1nc(-c2ccsc2)ccc1C(=O)N1CCn2c(C)nnc2C1 | 11.2
74 | COCC(=O)N1CCc2nc(-c3cnccn3)nc(O)c2C1 | -8.12
75 | NC(=O)N1CCCC(C(=O)NCCOc2ccc(F)c(F)c2)C1 (stereo not drawn) | -12.7
76 | CC(=O)Nc1ccc(CNC2COc3c2ccc(C)c3C)cc1 (stereo not drawn) | 15.7
77 | CCS(=O)(=O)N1Cc2c(Cn3ccnc3)nn(C)c2C1 | -2.09
78 | O=C(CC[C@@H]1CCCN2CCCC[C@H]12)N1CCC(c2nnc[nH]2)CC1 | -7.68
79 | Cc1oncc1C(=O)N[C@@H]1CN(Cc2ccoc2)C[C@@H]2CCCO[C@@H]21 | 2.7
80 | CCN(Cc1cc(Cl)ccc1OC)Cc1cc(C)nn1C | 2.1
81 | Cc1nn(C)c(C)c1C1COCCN1c1ncnc2sccc12 (stereo not drawn) | -11.4
82 | Cc1nnc(C2CCN(C(=O)c3ccsc3)CC2)s1 | -5.71
83 | CCc1noc(CN2CCCC2c2noc(C3CC3)n2)n1 (stereo not drawn) | 1.8
84 | Cc1cc(C)nc(N2CC[C@H](Oc3ccccc3F)[C@@H](O)CC2)n1 | -3.75
85 | CN(C)C(CNc1c(NCc2ccco2)c(=O)c1=O)c1ccccc1 (stereo not drawn) | -8.7
86 | COc1ccc(CN(CC2CCCO2)C(=O)CN2CCCCC2=O)cc1 (stereo not drawn) | -12.9
87 | CC(CNC(=O)c1ccc(Cl)cc1F)N1CCN(C)CC1 (stereo not drawn) | 13.3
88 | CCOc1ncccc1CNCc1c(C(C)C)nn(C)c1N(C)C | 57.6
89 | Cc1ccc(C)c(CC(=O)NC2CCC(N3C(=O)CCC3=O)CC2)c1 (stereo not drawn) | -1.42
90 | OCCc1cc(CC2(NCc3ccc(C(F)(F)F)cc3)COC2)no1 | -6.19
91 | CCCc1noc(C(C)N2CCN(c3ccc(C#N)cn3)CC2)n1 (stereo not drawn) | -10.8
92 | Cc1nc(C)c(C(=O)OCCNc2ncccc2C#N)s1 | -11.1

Row | SMILES | cytotoxicity at 70.5 h [%]
93 | CCc1cccc(NS(=O)(=O)c2cc(C)c(C(=O)O)s2)c1 | 0.535
94 | Cc1ccc(C(=O)NCc2ccnc(N(C)C)c2)c(C)c1 | 1.03
95 | Cc1ccc(C2CCCN2Cc2nc3c(cnn3C)c(=O)[nH]2)cc1C (stereo not drawn) | -15.6
96 | CCc1cnc(CNC(=O)N2CCCC(C(=O)NC)C2)s1 (stereo not drawn) | 12.5
97 | Cc1nc(CNC(=O)c2oc3ccccc3c2CN(C)C)oc1C | -8.24
98 | O=C1NCC(C(=O)Nc2ncc(Cc3ccc(F)cc3F)s2)N1 (stereo not drawn) | -3.7
99 | CCOc1ccccc1-n1c(CNC)n[nH]c1=O | -2.54
100 | Cc1ccc(S(=O)(=O)Nc2c(C)nn(C)c2C)cc1C | -5.46
101 | Cc1oc(C(C)C)cc1C(=O)N1C[C@H]2CC[C@@H]1CN(C(=O)N(C)C)C2 | 3.52
102 | COc1cc(NCc2ncc[nH]2)ccc1Br | -1.95
103 | COCCN1C[C@@H]2CN(S(=O)(=O)c3cccs3)C[C@@H]2C1=O | -8.88
104 | c1coc(CN2C[C@@H]3CCCO[C@@H]3[C@H](N3CCCC3)C2)c1 | -8.85
105 | CCC1CN(C(=O)Nc2cnc3c(cnn3C(C)C)c2)CCO1 (stereo not drawn) | 1.85
106 | CC(C)c1nc(C(=O)N2CCCC(N)CC2)cs1 (stereo not drawn) | 25.2
107 | Cc1nn(C)c(Cl)c1C1CCCN1C(=O)c1ccc2c(c1)COC2 (stereo not drawn) | -0.781
108 | COc1cccc2c1OCCCN(Cc1ncccc1C(=O)O)C2 | -3.58
109 | CCC[C@H]1CN(Cc2nccn2C)C[C@@H]1NC(=O)C1(COC)CCC1 | -4.15
110 | COC(=O)c1sc(C(F)(F)F)cc1OC | -12.4
111 | Cc1ccc(C(=O)N2CCN(CCC(C)(C)C)CC2)c(=O)[nH]1 | -6.54
112 | Cc1nc2cc(=O)[nH]n2c(C)c1CC(=O)Nc1cnn(C(C)(C)C)c1 | -3.02
113 | O=C(NCC1(CO)CC1)c1ccccc1Br | -8.75
